Data from US9326988B2, “Treatment and/or prevention of parkinson's disease dementia with ceftriaxone” (CHUNG SHAN MEDICAL UNIVERSITY, priority 2012, dated 2016).

Tests used:
[1] = tested on: 6-hydroxydopamine (6-OHDA)-lesioned rats; settings: 6-OHDA-lesioned rats (animal model of PD); cited from earlier work
normal rats [2] = test: T-maze test (working memory) in sham-operated rats; assay type: in vivo, male Wistar rats; settings: determined 10th day (FIG. 3)
Description: (§1) The rats in the sham-operated groups were generally subjected to the same surgical procedures for the rats in the pathological control group, the preventive groups, and the treatment groups, except that an equal volume of saline was infused bilaterally into the SNc of the mesencephalon of rats in the shame-operated groups.
(§2) 5 days before the MPTP-HCl injection, ceftriaxone (Sigma) was administered to the rats in the preventive groups 1,2 via intraperitoneal injection respectively at a daily dose of 100 mg/kg and at a daily dose of 200 mg/kg until the end of the 14th day after the MPTP-HCl injection. After the MPTP-HCl injection, ceftriaxone was administered to the rats in the treatment group 1 and the sham-operated groups 2,3 via intraperitoneal injection respectively at a daily dose of 200 mg/kg, at a daily dose of 100 mg/kg, and at a daily dose of 200 mg/kg, and saline was administered to the rats in the pathological control group and the sham-operated group 1 via intraperitoneal injection at a daily dose of 1 mL/kg. In addition, starting on the 3rd day after the MPTP-HCl injection, ceftriaxone was administered to the rats in the treatment groups 2,3 via intraperitoneal injection respectively at a daily dose of 100 mg/kg and at a daily dose of 200 mg/kg. […]

normal rats [3] = test: Object recognition test in sham-operated rats; assay type: in vivo, male Wistar rats; settings: determined 14th day (FIG. 4)
Description: as §1
as §2, with “mL/kg.” for “mL/kg. In addition, starting on the 3rd day after the MPTP-HCl injection, ceftriaxone was administered to the rats in the treatment groups 2,3 via intraperitoneal injection respectively at a daily dose of 100 mg/kg and at a daily dose of 200 mg/kg.”
The object recognition test is described as follows. […] By virtue of the video camera, the time spent by the respective rat exploring an object (i.e. the object A1, A2, A3, or B) during a trial (i.e. the first, second, third, or fourth trial) was measured. […]

correct response rate compared to sham-operated group 1 (saline) (normal rats [2]; sham-operated group 2: 100 mg/kg daily i.p. to 14th day): no statistical significance | correct response rate compared to sham-operated group 1 (saline) (normal rats [2]; sham-operated group 3: 200 mg/kg daily i.p. to 14th day): no statistical significance | percentage of exploration time spent on object B in the fourth trial versus object A3 in the third trial (normal rats [3]; sham-operated group 2: 100 mg/kg daily i.p.): there is statistical significance | percentage of exploration time spent on object B in the fourth trial versus object A3 in the third trial (normal rats [3]; sham-operated group 3: 200 mg/kg daily i.p.): there is statistical significance
SMILES: CO/N=C(\C(=O)N[C@@H]1C(=O)N2C(C(=O)O)=C(CSc3nc(=O)c(=O)[nH]n3C)CS[C@H]12)c1csc(N)n1 [ceftriaxone, Ceftriaxone]
motor symptoms [1]: useful in amelioration of motor symptoms | neuroprotection of dopaminergic neurons [1]: neuroprotection of dopaminergic neurons
